Assay results from publication PMC10600239, “Selective MCL-1 inhibitor ABBV-467 is efficacious in tumor models but is associated with cardiac troponin increases in patients” (Communications Medicine, 2023).
Several values for one entry are separate records, joined by “and”; a condition that tells them apart may be missing. Equal values may be shown once. Read-outs that look alike come from different tables or passages of the source.

Tests used:
AMO-1 cells = test: In vitro cell viability assay (CellTiter-Glo); assay type: cell-based, human; set-up: Cell viability after compound washout (CellTiter-Glo): scale not given here; settings: for Cell viability after compound washout (CellTiter-Glo): AMO-1, replicates
Protocol: All cell lines were grown and treated in RPMI 1640 or Dulbecco’s modified Eagle medium (Sigma, St. Louis, MO) supplemented with 10% fetal bovine serum (Gibco) or 10% human serum (Sigma) and maintained in a humidified incubator at 5% CO2 and 37 °C. DLD-1, MV4-11, NCI-H929 (all ATCC, Manassas, VA, USA) and AMO-1 (DSMZ, Braunschweig, Germany) cells were plated 4000 cells per well in 384-well tissue culture plates and treated with compounds of interest for 24 h at 37 °C, 5% CO2 humidified incubator. Each concentration was tested in duplicate at least 3 separate times. Adherent cells were allowed to adhere overnight prior to treatment. Alternatively, AMO-1 or NCI-H929 cells were treated with ABBV-467 for the indicated contact times (1–24 h) at 37 °C in a 5% CO2 humidified incubator and washed 3 times with compound-free media prior to incubation for the remainder of a 24-h treatment period. Cell viability was subsequently determined using CellTiter-Glo (Promega, Madison, WI, USA) according to the manufacturer’s instructions.
For in vitro viability assays, mean EC50 and EC90 values were determined from the resulting dose-response curves from at least 3 independent experiments, and depict the mean ± standard error of the mean.
Fig. 2 Apoptosis induced by ABBV-467 is mechanism based and induces cell death in MCL-1-dependent cell lines after short target engagement periods. H929 cells were treated with ABBV-467 in the presence or absence of the pan-caspase inhibitor z-VAD-fmk (50 µM) and the impact on caspase-3/7 activation (a), mitochondrial membrane potential (ΔΨm; b), and apoptosis (c) determined. Alternatively, BAK-deficient SKBR3 cells were treated with ABBV-467 for 24 h and the impact on cell viability compared with the parental cell line, determined by CellTiter-Glo. Inset depicts a western blot of BAK and BAX expression in SKBR3 cell variants using GAPDH as a loading control. Each of the 3 proteins were probed on separate blots (d). Data in (a–d) are presented as the mean ± standard error of the mean. H929 and AMO-1 cells were treated with ABBV-467 at the indicated concentrations and the impact on caspase-3/7 activation and viability (DRAQ7-positive) cells determined over time by Incucyte®. Data are presented as the mean ± standard deviation (e). H929 or AMO-1 cells were cultured in media containing 10% human serum and treated with ABBV-467 for the indicated contact times. Cells were subsequently washed 3 times with drug-free media and incubated in drug-free media for the remainder of the 24-h treatment period at 37 °C before cell viability was determined by CellTiter-Glo. Mean EC50 and EC90 values were determined from the resulting dose-response curves from at least 3 independent experiments, each assessed in quadruplicate, and depict the mean ± standard error of the mean. Presented ABBV-467 dose-response curves in H929 and AMO-1 cells were compiled from at least 3 independent experiments (f).

SU-DHL-1 cells = test: Cell viability of BAK-deficient and parental SU-DHL-1 cells (CellTiter-Glo); assay type: cell-based; settings: SU-DHL-1, 24 hr
Protocol: Supplementary Fig . S4: BAK is required for ABBV-467 ac tiv ity in S U-DHL-1 cells. BAK-deficient SU- D HL -1
cells were treated with ABBV-4 67 fo r 24 hr at the indicated concentrations and the impact on cell
viability compared to the parental cell line determined by CellTiter- G lo . N=3 .
(1 picture or pasted object on this page, not shown here)

[1] = Phase 1 first-in-human study (NCT04178902): efficacy (IMWG criteria, immunoglobulin, free light chain); assay type: in vivo; settings: for Kappa Lt Chain,Free/Lambda Lt Chain,Free / Immunoglobulin G: patient; for Kappa Lt Chain,Free/Lambda Lt Chain,Free: normal range 0.22-1.52; for Immunoglobulin G: normal range 5.65-17.65
Excerpt: This FIH study (NCT04178902) for ABBV-467 was a multicenter, open-label, dose-escalation study enrolling patients aged ≥18 years who had R/R MM, with the option to enroll R/R AML once recommended phase 2 dose (RP2D) was established. The study design was originally planned to consist of 2 parts: dose escalation and dose expansion, including a minimum of 6 patients treated during dose escalation at what was ultimately to be declared the RP2D. Patients must have received 3 or more prior lines of therapy including at least 1 or more immunomodulatory agents, 1 or more proteasome inhibitors, and 1 or more anti-CD38 monoclonal antibodies. Other eligibility criteria included: Eastern Cooperative Oncology Group performance status ≤2, measurable disease as defined by International Myeloma Working Group (IMWG) consensus criteria, an echocardiogram with an ejection fraction ≥50%, and adequate hematologic, hepatic, and renal function. The prespecified primary objectives were to characterize the safety and toxicity profiles, to establish the RP2D, and to determine the pharmacokinetic (PK) profile of ABBV-467 monotherapy. Safety evaluations included, but were not limited to, adverse event (AE) monitoring, physical examinations, vital sign measurements, electrocardiogram (ECG), cardiac enzyme monitoring, and clinical laboratory testing (hematology and chemistry) as a measure of safety and tolerability for the entire study duration. Parameters used to determine PK included maximum observed plasma concentration (Cmax), terminal elimination half-life (t1/2), area under the plasma concentration-time curve (AUC) from time 0 to time of last measurable concentration (AUCt), AUC from time 0 to infinity (AUC0-∞), and clearance using non-compartmental methods. Secondary objectives were preliminary evaluation of the efficacy of ABBV-467 in R/R MM and R/R AML. Preliminary efficacy endpoints were overall response rate (ORR), clinical benefit rate (CBR), and duration of response (DOR) as evaluated per adapted IMWG[36] criteria for MM and per adapted International Working Group (IWG)[37] and European Leukemia Net (ELN)[38] criteria for AML.

[2] = target: off-target receptors, ion channels, and transporters (Homo sapiens, UniProt P04150); test: Off-target profiling (Supplementary Data 1); settings: CEREP
Sequence of off-target receptors, ion channels, and transporters (P04150 whole entry): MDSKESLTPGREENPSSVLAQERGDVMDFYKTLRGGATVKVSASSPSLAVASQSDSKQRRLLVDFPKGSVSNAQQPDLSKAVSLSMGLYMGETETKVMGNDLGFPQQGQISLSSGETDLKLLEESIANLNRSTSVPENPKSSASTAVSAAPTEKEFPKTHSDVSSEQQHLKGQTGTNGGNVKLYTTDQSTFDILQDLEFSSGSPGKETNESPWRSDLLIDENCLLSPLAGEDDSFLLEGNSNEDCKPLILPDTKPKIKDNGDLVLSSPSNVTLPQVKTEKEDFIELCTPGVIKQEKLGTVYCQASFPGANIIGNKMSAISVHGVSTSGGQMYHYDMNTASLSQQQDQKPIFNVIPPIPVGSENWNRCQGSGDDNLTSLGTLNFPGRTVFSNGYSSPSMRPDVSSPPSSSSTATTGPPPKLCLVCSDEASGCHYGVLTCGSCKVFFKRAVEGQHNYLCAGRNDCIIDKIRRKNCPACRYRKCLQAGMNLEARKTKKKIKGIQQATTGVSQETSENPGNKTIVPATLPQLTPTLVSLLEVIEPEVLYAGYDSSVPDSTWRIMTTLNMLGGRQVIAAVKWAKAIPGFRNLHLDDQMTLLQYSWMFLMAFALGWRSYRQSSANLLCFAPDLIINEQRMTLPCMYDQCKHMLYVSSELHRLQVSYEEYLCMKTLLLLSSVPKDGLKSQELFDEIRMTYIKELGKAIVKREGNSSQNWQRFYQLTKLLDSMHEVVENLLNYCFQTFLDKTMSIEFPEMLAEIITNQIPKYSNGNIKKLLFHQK

Q: Which EC50 (AMO-1 cells; AMO-1, individual determinations, read-out: Individual EC50) does the source give for Cc1c(Cl)c2c(Cl)c(C)c1-c1c(-c3ccc(F)cc3)sc3ncnc(c13)O[C@@H](C(=O)O)Cc1cc(ccc1OCc1ccnc(-c3ccc(OC[C@H]4COCCO4)cc3)n1)OC[C@@H](CN1CCN(C)CC1)O2 [ABBV-467] here?
A: The EC50 was 0.224 nM and 0.216 nM and 0.212 nM and 0.145 nM and 0.159 nM and 0.131 nM and 0.106 nM and 0.0956 nM and 0.0874 nM and 0.217 nM and 0.188 nM.

Q: What about the “Cell viability after compound washout (CellTiter-Glo)” value (AMO-1 cells; 2hr + 22hr, Log Conc 1) of the same compound?
A: The value was 0.4281 and 0.471 and 0.3421 and 0.36 and 0.84 and 0.79 and 0.71 and 0.8 and 2.671 and 3.13 and 2.51 and 2.629.

Q: And the “Cell viability after compound washout (CellTiter-Glo)” value (AMO-1 cells; c49-c56, head empty, Log Conc 0.39794)?
A: Its value is 0.4.

Q: What about the EC50 (AMO-1 cells; Homo sapiens, AMO1, 10% human serum, contact time 1 hr, washout, viability at 24 h, read-out: AMO-1 Mean EC50) of the same compound?
A: Its EC50 is 31.9 nM.

Q: What about the EC90 (AMO-1 cells; Homo sapiens, AMO1, 10% human serum, contact time 2 hr, washout, viability at 24 h) of the same compound?
A: Its EC90 is 174 nM.

Q: What about the EC50 (AMO-1 cells; Homo sapiens, AMO1, 10% human serum, contact time 2 hr, washout, viability at 24 h, read-out: AMO-1 Mean EC50) of the same compound?
A: Its EC50 is 27.1 nM.

Q: And the EC90 (AMO-1 cells; Homo sapiens, AMO1, 10% human serum, contact time 4 hr, washout, viability at 24 h)?
A: The EC90 was 141 nM.

Q: What about the EC50 (AMO-1 cells; Homo sapiens, AMO1, 10% human serum, contact time 4 hr, washout, viability at 24 h, read-out: AMO-1 Mean EC50) of the same compound?
A: Its EC50 is 17.4 nM.

Q: And the EC90 (AMO-1 cells; Homo sapiens, AMO1, 10% human serum, contact time 6 hr, washout, viability at 24 h)?
A: Its EC90 is 114 nM.

Q: And the EC50 (AMO-1 cells; Homo sapiens, AMO1, 10% human serum, contact time 6 hr, washout, viability at 24 h, read-out: AMO-1 Mean EC50)?
A: The EC50 was 9.4 nM.

Q: And the EC90 (AMO-1 cells; Homo sapiens, AMO1, 24 h, 10% human serum, contact time 24 hr)?
A: Its EC90 is 6.7 nM.

Q: What about the EC50 (AMO-1 cells; Homo sapiens, AMO1, 24 h, 10% human serum, contact time 24 hr, read-out: AMO-1 Mean EC50) of the same compound?
A: Its EC50 is 0.7 nM.

Q: What about the EC50 (AMO-1 cells; Homo sapiens, AMO1, 24 h, read-out: AMO-1 EC50 (nM, 10% FBS), 10% FBS, 24 h continuous treatment) of the same compound?
A: Its EC50 is 0.1 nM.

Q: What about the EC50 (AMO-1 cells; Homo sapiens, AMO1, AMO-1, arithmetic mean, read-out: Arithmetic Mean EC50 nM) of the same compound?
A: The EC50 was 0.15 nM.

Q: And the EC50 (AMO-1 cells; Homo sapiens, AMO1, AMO-1, arithmetic mean, read-out: Arithmetic Mean EC50 µM)?
A: The EC50 was 0.155 nM.

Q: And the EC50 (AMO-1 cells; Homo sapiens, AMO1, read-out: Individual EC50 µM, AMO-1, individual determinations)?
A: Its EC50 is 0.112 nM.

Q: What about the EC50 (AMO-1 cells; read-out: AMO-1 EC50 (nM, 10% FBS), 10% FBS, 24 h continuous treatment) of the same compound?
A: Its EC50 is 0.16 nM.

Q: And the EC50 (AMO-1 cells; read-out: Individual EC50 µM, AMO-1, individual determinations)?
A: The EC50 was 0.122 nM.

Q: What about the “effect of BAK deletion on activity” value (SU-DHL-1 cells) of the same compound?
A: Its value is “completely inhibited”.

Q: What about the “duration of stable disease” value ([1]; 1 patient, […] dose level) of the same compound?
A: Its value is “approximately 8 months”.

Q: What about the “objective responses” value ([1]; 8 patients with R/R MM) of the same compound?
A: Its value is “No objective responses”.

Q: What about the “Kappa Lt Chain,Free/Lambda Lt Chain,Free” value ([1]; LBDY 1) of the same compound?
A: The value was 31.35 RATIO.

Q: And the “Immunoglobulin G” value ([1]; LBDY 1)?
A: The value was 28.1 g/L.

Q: What about the “Kappa Lt Chain,Free/Lambda Lt Chain,Free” value ([1]; LBDY 29) of the same compound?
A: The value was 25.56 RATIO.

Q: And the “Immunoglobulin G” value ([1]; LBDY 29)?
A: The value was 26.9 g/L.

Q: What about the “Kappa Lt Chain,Free/Lambda Lt Chain,Free” value ([1]; LBDY 57) of the same compound?
A: Its value is 23.38 RATIO.

Q: And the “Immunoglobulin G” value ([1]; LBDY 57)?
A: The value was 23.3 g/L.

Q: And the “Kappa Lt Chain,Free/Lambda Lt Chain,Free” value ([1]; LBDY 85)?
A: The value was 6.92 RATIO.

Q: What about the “Immunoglobulin G” value ([1]; LBDY 85) of the same compound?
A: Its value is 28.9 g/L.

Q: What about the “Kappa Lt Chain,Free/Lambda Lt Chain,Free” value ([1]; LBDY 115) of the same compound?
A: The value was 6.82 RATIO.

Q: And the “Immunoglobulin G” value ([1]; LBDY 115)?
A: Its value is 30.6 g/L.

Q: And the “Kappa Lt Chain,Free/Lambda Lt Chain,Free” value ([1]; LBDY 143)?
A: The value was 7.51 RATIO.

Q: And the “Immunoglobulin G” value ([1]; LBDY 143)?
A: The value was 29.6 g/L.

Q: What about the “Kappa Lt Chain,Free/Lambda Lt Chain,Free” value ([1]; LBDY 171) of the same compound?
A: The value was 8.26 RATIO.

Q: And the “Immunoglobulin G” value ([1]; LBDY 171)?
A: The value was 24.4 g/L.

Q: And the “Kappa Lt Chain,Free/Lambda Lt Chain,Free” value ([1]; LBDY 199)?
A: Its value is 3.99 RATIO.

Q: What about the “Immunoglobulin G” value ([1]; LBDY 199) of the same compound?
A: The value was 40.2 g/L.

Q: And the “Kappa Lt Chain,Free/Lambda Lt Chain,Free” value ([1]; LBDY 227)?
A: The value was 5.42 RATIO.

Q: And the “Immunoglobulin G” value ([1]; LBDY 227)?
A: The value was 29.5 g/L.

Q: And the “Kappa Lt Chain,Free/Lambda Lt Chain,Free” value ([1]; LBDY 238)?
A: Its value is 8.01 RATIO.

Q: And the “Immunoglobulin G” value ([1]; LBDY 238)?
A: The value was 32.9 g/L.

Q: What about the “Kappa Lt Chain,Free/Lambda Lt Chain,Free” value ([1]; LBDY -6) of the same compound?
A: The value was 31.47 RATIO.

Q: And the “Immunoglobulin G” value ([1]; LBDY -6)?
A: Its value is 23.8 g/L.

Q: And the Glucocorticoid Human Agonist Ligand (Binding Assay) - IC50 [2]?
A: Its Glucocorticoid Human Agonist Ligand (Binding Assay) - IC50 is 1000 nM.
